Molecules are shown by their SMILES. ≈ marks a conversion by molar mass, not a printed value.

For the data set the following is noted: buffer; pH 7.4; 200.0 µM.
Take `O=C(OCc1nc2ccccc2s1)c1ccccc1O`: the kinetic solubility is 4.8 µg/mL (≈ 16.8 µM). Consider `C=CCNC(=O)c1cc2sccc2n1C`, for which the kinetic solubility was greater than 33 µg/mL. Next, `O=C(COc1ccccc1)N1CCN(c2ncccn2)CC1`: greater than 44.8 µg/mL. Next, `CN1C(=O)CN=C(c2ccccc2Cl)c2cc(Br)ccc21`: 51.9 µg/mL (≈ 143 µM); `Cc1ccc2nc(CCc3ccc(N)cc3)[nH]c2c1.Cl`: greater than 48.6 µg/mL. In the case of `CC(C)(C)c1ccccc1OCC(=O)NCc1ccccc1` it was 1.8 µg/mL (≈ 6.05 µM); in that of `Cc1ccc(S(=O)(=O)N2CC3CCCC2C3)cc1` (centres undefined), 34.9 µg/mL (≈ 132 µM).

In turn, `CCCn1c(N)c(C(=O)CN2CCc3ccccc3C2)c(=O)n(C)c1=O` displayed a kinetic solubility greater than 53.5 µg/mL. In the case of `Cc1ccc(CN2CCN(CC(=O)NCc3ccccc3)CC2)cc1` it was 2.2 µg/mL (≈ 6.52 µM); in that of `CN(C)c1ccc(C(=O)/C=C/c2cccnc2)cc1`, 6.7 µg/mL (≈ 26.6 µM); in that of `O=C(NCc1ccco1)c1ccc(Cl)nc1`, greater than 35.5 µg/mL.

For the compound `Cc1c(C(=O)NC2CC2)oc2ccccc12`, the kinetic solubility is greater than 32.3 µg/mL. In the case of `CCN1CCN(c2nnc(-c3ccccc3)c3ccccc23)CC1` it was greater than 47.8 µg/mL; in that of `CCCCNC(=S)Nc1ccc(Oc2ccccc2)cc1`, 6.5 µg/mL (≈ 21.6 µM). In the case of `Cc1ccc(C(=O)N2CCOCC2)c(F)c1F` it was 33.9 µg/mL (≈ 141 µM). In the case of `Cc1ccc(N2CC(C(=O)OCC(=O)c3ccc(F)cc3)CC2=O)cc1` (centres undefined) it was 23.5 µg/mL (≈ 66.1 µM); in that of `CN1CCN(C(=O)CCN2C(=O)/C(=C\c3ccc(F)cc3)SC2=S)CC1`, 22.3 µg/mL (≈ 56.7 µM).

`COc1ccc(C(=O)Nc2ccc(CN3CCS(=O)(=O)CC3)cc2)cc1`: the kinetic solubility was 1.3 µg/mL (≈ 3.47 µM). For `Cc1ccc(N2C(=O)CC(Sc3nccc(C)n3)C2=O)cc1` (centres undefined), the solubility (kinetic) is greater than 47 µg/mL. The compound `N/C(=N\OC(=O)c1cccs1)C1(c2ccc(Cl)cc2Cl)CC1` showed a solubility (kinetic) of 12.3 µg/mL (≈ 34.6 µM). `Cc1cccc(C(=O)Oc2cc(C)[nH]c(=O)c2[N+](=O)[O-])c1`: the solubility (kinetic) is greater than 43.2 µg/mL. Next, `CC1(C)CC2CC(C)(CN2Cc2cccc([N+](=O)[O-])c2)C1` (centres undefined): 5.2 µg/mL (≈ 18 µM); `CC1(C2CC(C(F)(F)F)n3nc(C(=O)O)cc3N2)CC1` (centres undefined): greater than 43.4 µg/mL; `CCOC(=O)c1ccc(N2C(=O)C3CCCN3C2=S)cc1` (centres undefined): 41 µg/mL (≈ 135 µM).

For the compound `CCCc1nc(-c2cc3cc(C)ccc3[nH]c2=O)no1`, the kinetic solubility was found to be 15 µg/mL (≈ 55.7 µM).

In turn, `O=C(O)C1C2c3ccccc3C(c3ccccc32)C1C(=O)Nc1ccccc1` (centres undefined) gave a kinetic solubility greater than 55.4 µg/mL. In the case of `CC1(c2cccc(Br)c2)NC(=O)N(CC(=O)c2ccc3c(c2)OCCO3)C1=O` (centres undefined) it was 12.5 µg/mL (≈ 28.1 µM); in that of `COc1ccc(O)c(CNc2ccccc2F)c1`, 34 µg/mL (≈ 138 µM). In the case of `O=C(NC(=S)Nc1ccc(Br)cc1)C1CCC1` it was 2.6 µg/mL (≈ 8.3 µM); in that of `Cc1ccc(/C=C2\C(=O)NC(=O)N2C)o1`, 21.4 µg/mL (≈ 104 µM); in that of `COc1ccc(NS(=O)(=O)c2ccc3c(c2)OCCO3)cc1OC`, greater than 52.7 µg/mL.

With `CC(NC(=O)c1cnccn1)c1ccc(S(N)(=O)=O)cc1` (centres undefined), the solubility (kinetic) is greater than 46 µg/mL.

In the case of `Cc1ccccc1NC1=NCC(c2ccc([N+](=O)[O-])cc2)S1` (centres undefined), the solubility (kinetic) was 10.5 µg/mL (≈ 33.5 µM). In the case of `Cc1cc(C)cc(NC(=O)Nc2ccc(N3CCCCC3)cc2)c1` it was 0.3 µg/mL (≈ 0.928 µM); in that of `Cc1cc(Nc2cccc(Cl)c2Cl)n2ncnc2n1`, greater than 44.1 µg/mL; in that of `Cc1cc(C)c(C(=O)O)c(Cl)n1`, greater than 27.8 µg/mL.

In the case of `Cc1cc(C)n2nc(C(=O)OCC(=O)NCc3ccc(F)cc3)nc2n1`, the solubility (kinetic) is greater than 53.6 µg/mL. `CC1CC(C)CN(C(=O)Cc2c(C(=O)O)[nH]c3ccc(Cl)cc23)C1` (centres undefined) yielded a solubility (kinetic) greater than 52.3 µg/mL. As for `COc1ccc(CNc2nc(NC(C)=O)nn2-c2ccccc2)cc1`, the solubility (kinetic) was greater than 50.6 µg/mL.

The compound `Cc1cc(O)c(C(=O)Nc2cccc(Cl)c2)c(=O)n1C` came in with a solubility (kinetic) of less than 0.3 µg/mL. Next, `Cc1ccc(NC(=O)CN2CCOCC2)cc1`: greater than 35.1 µg/mL; `COc1ccc(CN2CCN(C(=O)C3CCN(C(=O)Nc4ccccc4)CC3)CC2)cc1OC`: 60.6 µg/mL (≈ 130 µM); `CCC(CC)NC(=O)C1CC(=O)N(CCc2ccc(F)cc2)C1` (centres undefined): greater than 48.1 µg/mL. Next, `Cc1ccc(NC(=O)CCSc2nnc(C)o2)cc1`: greater than 41.6 µg/mL. Next, `O=C(CSc1nc2ccccc2s1)NC1CCCC1`: 38.6 µg/mL (≈ 132 µM); `CCn1c(=O)c2c(nc(SCC(=O)NC3CCCC3)n2C)n(C)c1=O`: greater than 54.8 µg/mL; `Cc1ccc(-c2csc(NC(=O)C3CC(=O)N(Cc4ccco4)C3)n2)cc1` (centres undefined): 12.1 µg/mL (≈ 31.7 µM). As to `Cc1cc(C)cc(NC(=O)Nc2cc(S(=O)(=O)N(C)C)ccc2C)c1`, the kinetic solubility worked out at 0.6 µg/mL (≈ 1.66 µM). In turn, `O=C(Nc1ccc(CN2CCCCC2)cc1)c1cccc(F)c1` showed a kinetic solubility of 44.7 µg/mL (≈ 143 µM). The compound `Cc1ccccc1Nc1c(C)c(C)nc2ncnn12` yielded a kinetic solubility greater than 38 µg/mL. In the case of `CCOC(=O)C(C)Sc1nc(N2CCOCC2)c2c(c1C#N)CC(C)(C)OC2` (centres undefined) it was 38.8 µg/mL (≈ 95.7 µM).

Take `CC(=O)OCCN(C)c1cc(SC(C)C)c2nonc2c1[N+](=O)[O-]`: the solubility (kinetic) came out at 51.2 µg/mL (≈ 144 µM). On to `Cc1onc(-c2ccccc2Cl)c1C(=O)N1CCCCC1C` (centres undefined), for which the solubility (kinetic) is 45.8 µg/mL (≈ 144 µM). Consider `Cc1ccc2nc(SCC(=O)Nc3cc(C)on3)c(C)cc2c1`, for which the solubility (kinetic) was less than 0.2 µg/mL.

Turning to `O=C(NC(=S)Nc1ncccn1)c1ccccc1Br`, the kinetic solubility was 23.5 µg/mL (≈ 69.7 µM).

The compound `CC(=O)c1c(OC(=O)c2cccc(Cl)c2)c2ccccc2n1C` showed a kinetic solubility of less than 0.7 µg/mL. `COc1ccc(CCC(C)N2CCc3ccccc3C2)cc1` (centres undefined) had a solubility (kinetic) of 39.1 µg/mL (≈ 132 µM). Next, `Cc1cc(N/C=C/C(=O)c2cccs2)ccc1F`: 1.7 µg/mL (≈ 6.51 µM); `Cc1ccc(-n2ccnc(SCC(=O)NC3CCCC3)c2=O)cc1Cl`: 3 µg/mL (≈ 7.94 µM); `Cc1cccc(NS(=O)(=O)c2cccc([N+](=O)[O-])c2)n1`: greater than 44 µg/mL. `O=C(Nc1ccc2c(c1)OCCO2)C(=O)NC1CC1` returned a solubility (kinetic) of 30.8 µg/mL (≈ 117 µM). The compound `COc1cccc(S(=O)(=O)NCC(=O)N2CCCCCC2)c1` came in with a solubility (kinetic) greater than 49 µg/mL.

Consider `CNC(=O)NC(=O)CN1C(=O)NC2(CCOc3ccccc32)C1=O` (centres undefined), for which the kinetic solubility is greater than 49.8 µg/mL. In the case of `O=C(Cc1cccs1)NCCc1csc(-c2ccccc2)n1` it was greater than 49.3 µg/mL.

`CC1CN=C(Nc2ccc(F)c(Cl)c2)S1` (centres undefined) displayed a kinetic solubility of 17.3 µg/mL (≈ 70.7 µM). Next, `NS(=O)(=O)c1cc([N+](=O)[O-])ccc1NCc1cccnc1`: 44.8 µg/mL (≈ 145 µM); `O=C(NC1CCCCC1)C(=O)c1c[nH]c2ccccc12`: 1.1 µg/mL (≈ 4.07 µM); `COC(=O)CN1C(=O)N/C(=C/c2cc(OC)c(OC)cc2C)C1=O`: 46.9 µg/mL (≈ 140 µM). In the case of `Cl.NCCOc1ccccc1OCCN` it was greater than 40.4 µg/mL; in that of `CCCN1CCCC(C(=O)c2cc(C)c(OC)c(C)c2)C1` (centres undefined), 39 µg/mL (≈ 135 µM); in that of `CCc1sc(NC(=O)C(C)C)nc1-c1ccccc1`, 15.6 µg/mL (≈ 56.9 µM). In the case of `CC(=O)Nc1ccccc1C(=O)C(=O)NCCc1ccccc1` it was 40.5 µg/mL (≈ 130 µM); in that of `CCc1nnc(NC(=O)CN2C(=O)NC3(CC(C)CC(C)(C)C3)C2=O)s1` (centres undefined), greater than 56.9 µg/mL. For `CC(C)(C)c1ccc(C(=O)N2CCN(c3ncccn3)CC2)cc1`, the solubility (kinetic) was 9.6 µg/mL (≈ 29.6 µM). Next, `CNCc1c(OCc2ccccc2)ccc2ccccc12.Cl`: 44.9 µg/mL. Consider `Cc1c(NS(=O)(=O)c2cccc(C(=O)N3CCC(C)CC3)c2)c(=O)n(-c2ccccc2)n1C`, for which the solubility (kinetic) is greater than 70.3 µg/mL. Next, `Cc1ccc(/C=C(\C#N)C(=O)Nc2cccc(C)n2)cc1`: less than 0.2 µg/mL; `Cc1cc(C(=O)OCC(=O)c2ccccc2)c2ccccc2n1`: 3.6 µg/mL (≈ 11.8 µM). For the compound `Cc1cc(C(=O)Nc2ccccc2N2CCOCC2)no1`, the kinetic solubility turned out to be 19.2 µg/mL (≈ 66.8 µM). Next, `CC1(C)NC(=O)N(CCOc2ccc([N+](=O)[O-])cc2)C1=O`: greater than 44 µg/mL; `CC(=O)Nc1ccc(NC(=O)C(C)OC(=O)C2CCCC2)cc1` (centres undefined): greater than 47.8 µg/mL; `Cc1noc2ncnc(N3CCN(c4ccc(F)cc4)CC3)c12`: 1.7 µg/mL (≈ 5.43 µM). The compound `N#Cc1ccccc1-c1ccccc1C(=O)N1CCCCC1` came in with a kinetic solubility greater than 43.6 µg/mL. In the case of `N#Cc1c(F)cccc1NCCCn1ccnc1` it was 30.7 µg/mL (≈ 126 µM); in that of `CCOCCCNCc1cc(Cl)ccc1OCC.Cl`, greater than 46.2 µg/mL. In the case of `Cc1cnc(NC(=O)c2cccs2)s1` it was 28.1 µg/mL (≈ 125 µM); in that of `Cc1cccc(NC(=O)CCCc2ccccc2)c1`, 31.3 µg/mL (≈ 124 µM); in that of `COc1ccc(NC(=O)CSCc2ccc([N+](=O)[O-])cc2)cc1OC`, 50.1 µg/mL (≈ 138 µM). The compound `O=C(Nc1ccccc1)/C(=C\c1ccco1)NC(=O)c1ccco1` registered a solubility (kinetic) greater than 48.3 µg/mL. For the compound `O=C(O)c1ccc2c(c1)C(=O)N(c1ccccc1-c1ccccc1)C2=O`, the kinetic solubility was greater than 51.5 µg/mL. Consider `COc1ccc(OC)c(CN2CCCCCC2)c1.O=C(O)C(=O)O`, for which the solubility (kinetic) was 48.2 µg/mL.

The compound `CN(C(=O)COC(=O)c1ccc2ccccc2n1)C1CCCCC1` had a solubility (kinetic) greater than 49 µg/mL.

Compound `COc1cc(/C=C(/C#N)C(=O)NCCCc2ccccc2)ccc1OCC(=O)O` displayed a kinetic solubility of 37.9 µg/mL (≈ 96.1 µM). Next, `CCCCCCC1CC(=O)NC(=S)N1` (centres undefined): 28.4 µg/mL (≈ 133 µM); `C=CCn1c(C)c(C=C2C(=O)NC(=O)NC2=O)c2ccccc21`: greater than 46.4 µg/mL; `COc1ccc(CNC(=O)Cn2cncn2)cc1OC`: greater than 41.4 µg/mL. `COc1ccc(NC(=O)COC(=O)C2=COCCO2)cc1OC` registered a kinetic solubility greater than 48.5 µg/mL.

For `CCOc1ccc(C2CC(=O)NC2=O)cc1` (centres undefined), the kinetic solubility is greater than 32.9 µg/mL.

With `COc1ccc2nc(NC(=O)C3CC(=O)N(c4ccccc4)C3)sc2c1` (centres undefined), the kinetic solubility was 0.7 µg/mL (≈ 1.91 µM). The compound `CC(=O)OCC(=O)Nc1ccc(Br)c(C)c1` had a solubility (kinetic) greater than 42.9 µg/mL. `CC(=O)c1cccc(NC(=O)CNC(=O)Cc2cccc3ccccc23)c1` registered a kinetic solubility of 8.4 µg/mL (≈ 23.3 µM). In the case of `Cc1ccc2c(c1)C(=O)C(=O)N2CC1COc2ccccc2O1` (centres undefined) it was 19.5 µg/mL (≈ 63 µM); in that of `O=[N+]([O-])c1cccnc1Oc1ccc(F)cc1`, 31.6 µg/mL (≈ 135 µM); in that of `Cc1nc(N2CCNCC2)c2c3c(sc2n1)CCCC3`, 26.7 µg/mL (≈ 92.6 µM).

Broadly, the kinetic solubility is solubility judged after dilution from a stock solution rather than from solid.

The values above are taken from PubChem BioAssay AID1996.
